Experimental data from ChEMBL document CHEMBL5608223, “Chemical Probes to Investigate Central Nervous System Disorders: Design, Synthesis and Mechanism of Action of a Potent Human Serine Racemase Inhibitor” (ACS Med Chem Lett, 2024).
Calls of active or inactive are those of the source. No cut-off for these calls is given here.

Assays:
[1] = biological target: T1, Phosphoserine aminotransferase (Homo sapiens, UniProt Q9Y617); experiment: Inhibition of human PSAT extracted from Escherichia coli BL21(DE3) cells preincubated with compound followed by L-OPS addition in presence of PLP
T1 sequence (Q9Y617 whole entry): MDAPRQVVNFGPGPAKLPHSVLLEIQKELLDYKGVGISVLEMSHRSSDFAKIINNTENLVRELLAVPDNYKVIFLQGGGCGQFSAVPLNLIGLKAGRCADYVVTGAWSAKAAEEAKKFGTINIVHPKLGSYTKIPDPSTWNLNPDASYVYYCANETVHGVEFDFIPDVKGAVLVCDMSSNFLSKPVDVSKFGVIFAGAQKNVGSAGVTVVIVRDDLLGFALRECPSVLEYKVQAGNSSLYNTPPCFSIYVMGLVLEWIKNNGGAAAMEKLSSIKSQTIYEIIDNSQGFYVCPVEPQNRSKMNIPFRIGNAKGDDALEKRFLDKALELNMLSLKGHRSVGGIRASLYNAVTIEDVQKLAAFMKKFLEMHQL

Serine racemase [2] = biological target: T2, Serine racemase (Mus musculus, UniProt Q9QZX7); experiment: Inhibition of mouse SR using L-Serine as substrate incubated for 2 hrs in presence of PLP by spectrophotometer assay
T2 sequence (Q9QZX7 whole entry): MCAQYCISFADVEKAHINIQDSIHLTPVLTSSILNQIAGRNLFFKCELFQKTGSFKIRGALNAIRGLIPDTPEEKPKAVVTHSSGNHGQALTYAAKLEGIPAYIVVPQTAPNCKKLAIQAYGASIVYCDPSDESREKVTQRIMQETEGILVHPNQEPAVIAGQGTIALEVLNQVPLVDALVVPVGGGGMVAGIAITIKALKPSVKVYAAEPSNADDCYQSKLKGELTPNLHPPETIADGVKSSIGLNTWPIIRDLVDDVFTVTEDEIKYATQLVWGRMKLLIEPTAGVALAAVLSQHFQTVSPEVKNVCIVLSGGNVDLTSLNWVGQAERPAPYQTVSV

Serine racemase [3] = biological target: T3, Serine racemase (Homo sapiens, UniProt Q9GZT4); experiment: Inhibition of human SR extracted from Escherichia coli assessed as beta-eliminase activity using L-Ser as substrate by spectrophotometer assay
T3 sequence (Q9GZT4 whole entry): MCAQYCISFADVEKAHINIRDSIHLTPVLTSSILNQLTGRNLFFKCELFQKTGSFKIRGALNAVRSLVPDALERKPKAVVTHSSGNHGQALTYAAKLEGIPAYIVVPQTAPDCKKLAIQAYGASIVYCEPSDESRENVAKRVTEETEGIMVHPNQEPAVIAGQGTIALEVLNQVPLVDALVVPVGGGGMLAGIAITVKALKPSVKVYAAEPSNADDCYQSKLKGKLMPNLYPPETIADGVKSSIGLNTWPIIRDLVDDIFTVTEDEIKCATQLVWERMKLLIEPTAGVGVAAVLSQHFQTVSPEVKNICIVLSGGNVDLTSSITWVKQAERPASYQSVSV

[4] = biological target: T4, Serine racemase (Homo sapiens) (UniProt Q9GZT4); experiment: Inhibition of recombinant hexa-His tagged human SR extracted from Escherichia coli BL21 CodonPlusR (DE3)-RIL cells at 2 mM preincubated with compound followed by L-serine addition and measured after 10 mins
T4 sequence (whole entry): T3 sequence (Q9GZT4 whole entry)

NOC(Cc1ccc(-c2ccccc2)cc1)C(=O)O (stereo not given)
IC50 [1]: 2.2 µM

N[C@H]1CONC1=O [LEVCYCLOSERINE]
IC50 (Serine racemase [2]): 2270 µM

O=C(O)[C@H]1C[C@H]1C(=O)O
IC50 (Serine racemase [3]): 3000 µM

N[C@@H](Cc1ccccc1)C(=O)O
Activity [4]: inactive

O=C(O)CC(=O)O [MALONIC ACID]
IC50 (Serine racemase [3]): 71 µM
